Data on 33 molecules can be found in PMC9964680, “Novel TDP1 Inhibitors: Disubstituted Thiazolidine-2,4-Diones Containing Monoterpene Moieties” (International Journal of Molecular Sciences, 2023).

SMILES strings stand for the structures.

The subject of the first assay is TDP1.
Experiment: not given
The conditions noted are these: Figure 1, berberines; cited from earlier work.
A word on the IC50: it is the concentration that inhibits the measured activity by half. With `CCCS(=O)(=O)Oc1c(OC)cc(Br)c2c1CN1CCc3cc4c(cc3C1C2)OCO4` (stereo not drawn) [Compound 2], the IC50 is 2900 nM.

The assay is the same for the next values; noted with them: Figure 1, coumarins; cited from earlier work.
On to `COc1ccc(-c2cc(=O)oc3cc(OCCC4=CCC5CC4C5(C)C)ccc23)cc1` (stereo not drawn) [Compound 3], for which the IC50 was 910 nM.

Still in this assay, the particulars now being: Figure 1, isoquinolines; cited from earlier work.
As to `COc1cccc2c1-c1c(c3ccc([N+](=O)[O-])cc3c(=O)n1CCCN)C2=O` [Compound 5], the IC50 was 5500 nM.

The same assay, now with this note: Figure 1, resin acid derivatives; cited from earlier work.
`CC(C)c1ccc2c(c1)CC[C@H]1[C@](C)(CNC(=O)CC34CC5CC(CC(C5)C3)C4)CCC[C@]21C` [Compound 7]: the IC50 was 190 nM.

Staying with this assay, now noted: Figure 1, steroids; cited from earlier work.
In the case of `CO[C@@H]1CC[C@]2(C)C3C[C@H](OC)[C@@]4(C)C(CC[C@@H]4[C@H](C)CCC(=O)Nc4ccc(Br)cc4)[C@@H]3CC[C@@H]2C1` (stereo partly drawn) [Compound 4], the IC50 was 270 nM.

Still in this assay, the particulars now being: Figure 1, terpenoadamantanes; cited from earlier work.
On to `CC(C)=CCC/C(C)=C/CSc1n[nH]c(C23CC4CC(CC(C4)C2)C3)n1` [Compound 8], for which the IC50 is 5200 nM.

Still in this assay, the particulars now being: Figure 1, thiazolidines; cited from earlier work.
On to `O=C1NC(=S)/C(=C/c2ccc(O)c(O)c2O)S1` [Compound 6], for which the IC50 was 870 nM.

The target in a further assay is T1, Human recombinant TDP1 (Homo sapiens, UniProt Q9NUW8).
T1 construct: made in house
T1 sequence (Q9NUW8 whole entry): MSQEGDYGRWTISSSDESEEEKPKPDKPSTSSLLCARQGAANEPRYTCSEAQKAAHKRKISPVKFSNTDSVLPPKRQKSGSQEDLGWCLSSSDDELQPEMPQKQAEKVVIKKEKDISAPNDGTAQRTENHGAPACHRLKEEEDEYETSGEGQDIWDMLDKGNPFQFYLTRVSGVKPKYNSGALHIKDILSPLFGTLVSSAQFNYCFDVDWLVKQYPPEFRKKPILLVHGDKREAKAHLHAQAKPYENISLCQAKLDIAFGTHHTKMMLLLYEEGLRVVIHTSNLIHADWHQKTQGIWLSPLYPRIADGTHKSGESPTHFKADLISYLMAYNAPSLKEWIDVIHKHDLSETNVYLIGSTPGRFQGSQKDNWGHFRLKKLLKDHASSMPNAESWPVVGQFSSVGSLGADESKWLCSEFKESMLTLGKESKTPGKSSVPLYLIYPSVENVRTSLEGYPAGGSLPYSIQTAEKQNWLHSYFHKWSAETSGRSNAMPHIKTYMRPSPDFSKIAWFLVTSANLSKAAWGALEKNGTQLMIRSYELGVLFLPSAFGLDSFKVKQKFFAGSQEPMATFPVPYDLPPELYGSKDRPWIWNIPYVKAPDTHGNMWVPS
Nature of the assay: Real-time oligonucleotide biosensor assay of TDP1 activity. The class given is biochemical. The conditions noted are these: 1.5 nM TDP1, 50 nM biosensor, 26 °C, at least three experiments. How it is done:
The inhibiting activity of the compounds against TDP1 was investigated using a real-time oligonucleotide biosensor assay.
The biosensor (5′-[FAM] AAC GTC AGGGTC TTC C [BHQ]-3′) was synthesized in the Laboratory of Nucleic Acid Chemistry at the Institute of Chemical Biology and Fundamental Medicine (Novosibirsk, Russia) and was used for TDP1 enzyme activity real-time fluorescence detection. The reaction mixture (200 µL) contained a TDP1 reaction buffer (50 mM Tris-HCl, pH 8.0, 50 mM NaCl, and 7 mM β-mercaptoethanol), 50 nM oligonucleotide, varied concentrations of the tested compounds, and purified TDP1 in a final concentration of 1.5 nM. The recombinant TDP1 was purified to homogeneity by chromatography on Ni-chelating resin and phosphocellulose P11, as described, using plasmid pET 16B-TDP1, kindly provided by Dr. K.W. Caldecott (University of Sussex, United Kingdom).
The reaction mixtures were incubated at a constant temperature of 26 °C in a POLARstar OPTIMA fluorimeter (BMG LABTECH, GmbH, Ortenberg, Germany). Fluorescence intensity was measured (Ex485/Em520 nm) every 1 min for 10 min. The average values of the half maximal inhibitory concentration (IC50) were determined using a six-point concentration response curve and calculated using MARS Data Analysis 2.0 (BMG LABTECH). The 50% inhibitory concentration (IC50) was defined as the concentration of the compound that inhibited 50% of the enzyme activity, when compared to the untreated controls. At least three independent experiments were carried out to obtain the IC50 values.
For `CC1(C)[C@H]2CC=C(CCN3C(=O)S/C(=C\c4cc(Br)cs4)C3=O)[C@@H]1C2` [Compound 21d, (Z)-5-((4-bromothiophen-2-yl)methylene)-3-(2-((1R,5S)-6,6-dimethylbicyclo[3.1.1]hept-2-en-2-yl)ethyl)thiazolidine-2,4-dione], the “TDP1 inhibitory activity IC50” value is reported as “submicromolar”. The same measure, in the same setting: the entry for `CC(C)=CCC/C(C)=C/CN1C(=O)S/C(=C\c2cc(Br)cs2)C1=O` [Compound 20d, (Z)-5-((4-bromothiophen-2-yl)methylene)-3-((E)-3,7-dimethylocta-2,6-dienyl)thiazolidine-2,4-dione] is “submicromolar”; for `CC(C)=CCC/C(C)=C/CN1C(=O)S/C(=C\c2ccc(Br)s2)C1=O` [Compound 20b, (Z)-5-((5-bromothiophen-2-yl)methylene)-3-((E)-3,7-dimethylocta-2,6-dienyl)thiazolidine-2,4-dione] it is “did not show affinity for the enzyme”.

The assay is the same for the next values; noted with them: 1.5 nM TDP1, 50 nM biosensor, 26 °C, at least three experiments; read-out: TDP1 inhibitory activity IC50.
`Cc1ccc(/C=C2\SC(=O)N(Cc3ccccc3)C2=O)s1` [Compound 19e, (Z)-3-Benzyl-5-((5-methylthiophen-2-yl)methylene)thiazolidine-2,4-dione]: the 50% inhibitory concentration (IC50) was over 100000 nM. Same read-out and setting: the figure for `CC1(C)[C@H]2CC=C(CCN3C(=O)S/C(=C\c4cc(Br)cs4)C3=O)[C@@H]1C2` [Compound 21d, (Z)-5-((4-bromothiophen-2-yl)methylene)-3-(2-((1R,5S)-6,6-dimethylbicyclo[3.1.1]hept-2-en-2-yl)ethyl)thiazolidine-2,4-dione] is 550 ± 70 nM; for `O=C1NC(=O)/C(=C/c2cc(Br)cs2)S1` [Compound 18d, (Z)-5-((4-bromothiophen-2-yl)methylene)thiazolidine-2,4-dione] it is over 100000 nM; for `CC1(C)[C@H]2CC=C(CCN3C(=O)S/C(=C\c4ccc(Br)cc4)C3=O)[C@@H]1C2` [Compound 21f, (Z)-5-(4-bromobenzylidene)-3-(2-((1R,5S)-6,6-dimethylbicyclo[3.1.1]hept-2-en-2-yl)ethyl)thiazolidine-2,4-dione] it is over 100000 nM.

For the molecule `O=C1NC(=O)/C(=C/c2ccc(Br)cc2)S1` [Compound 18f, (Z)-5-(4-bromobenzylidene)thiazolidine-2,4-dione], the IC50 was over 100000 nM. For the molecule `O=C1NC(=O)/C(=C/c2ccc(Br)s2)S1` [Compound 18b, (Z)-5-((5-bromothiophen-2-yl)methylene)thiazolidine-2,4-dione], the IC50 is 1100 ± 200 nM.

Turning to `CC(C)=CCC/C(C)=C/CN1C(=O)S/C(=C\c2ccc(C)s2)C1=O` [Compound 20e, (Z)-3-((E)-3,7-dimethylocta-2,6-dienyl)-5-((5-methylthiophen-2-yl)methylene)-thiazolidine-2,4-dione], the IC50 was 2900 ± 100 nM. As to `O=C1S/C(=C\c2cc(Br)cs2)C(=O)N1Cc1ccccc1` [Compound 19d, (Z)-3-Benzyl-5-((4-bromothiophen-2-yl)methylene)thiazolidine-2,4-dione], the IC50 was over 100000 nM. Same read-out and setting: the figure for `O=C1S/C(=C\c2ccc(Br)s2)C(=O)N1Cc1ccccc1` [Compound 19b, (Z)-3-Benzyl-5-((5-bromothiophen-2-yl)methylene)thiazolidine-2,4-dione] is 1900 ± 300 nM.

Regarding `O=C1S/C(=C\c2ccco2)C(=O)N1Cc1ccccc1` [Compound 19a, (Z)-3-Benzyl-5-(furan-2-ylmethylene)thiazolidine-2,4-dione], the IC50 was over 100000 nM. The same measure, in the same setting: the same measure for `CC(C)=CCC/C(C)=C/CN1C(=O)S/C(=C\c2ccco2)C1=O` [Compound 20a, (Z)-3-((E)-3,7-dimethylocta-2,6-dienyl)-5-(furan-2-ylmethylene)thiazolidine-2,4-dione]: 3400 ± 100 nM; for `CC1=CC[C@@H](C/C=C2\SC(=O)NC2=O)C1(C)C` [Compound 18g, (S,Z)-5-(2-(2,2,3-Trimethylcyclopent-3-enyl)ethylene)thiazolidine-2,4-dione]: over 100000 nM. On the same count and under the same terms, the same measure for `CC(C)=CCC/C(C)=C/CN1C(=O)S/C(=C\c2ccc(Br)cc2)C1=O` [Compound 20f, (Z)-5-(4-bromobenzylidene)-3-((E)-3,7-dimethylocta-2,6-dienyl)thiazolidine-2,4-dione]: over 100000 nM; for `CC1=CCC(CC=C2SC(=O)N(CCC3=CCC4CC3C4(C)C)C2=O)C1(C)C` [Compound 21g, (Z)-3-(2-(1R,5S)-6,6-dimethylbicyclo[3.1.1]hept-2-en-2-yl)ethyl)-5-(2-((S)-2,2,3-trimethylcyclopent-3-enyl)ethylidene)thiazolidine-2,4-dione]: 2400 ± 100 nM; for `CC(C)=CCC/C(C)=C/CN1C(=O)S/C(=C\C[C@@H]2CC=C(C)C2(C)C)C1=O` [Compound 20g]: 4100 ± 100 nM. Same read-out and setting: the figure for `CC1(C)[C@H]2CC=C(CCN3C(=O)S/C(=C\c4cccs4)C3=O)[C@@H]1C2` [Compound 21c, (Z)-3-(2-((1R,5S)-6,6-dimethylbicyclo[3.1.1]hept-2-en-2-yl)ethyl)-5-(thiophen-2-ylmethylene)thiazolidine-2,4-dione] is over 100000 nM. With `O=C1NC(=O)/C(=C/c2ccco2)S1` [Compound 18a, (Z)-5-(furan-2-ylmethylene)thiazolidine-2,4-dione], the IC50 was over 100000 nM. Same read-out and setting: the figure for `Cc1ccc(/C=C2\SC(=O)NC2=O)s1` [Compound 18e, (Z)-5-((5-methylthiophen-2-yl)methylene)thiazolidine-2,4-dione] is over 100000 nM; for `CC(C)=CCC/C(C)=C/CN1C(=O)S/C(=C\c2cc(Br)cs2)C1=O` [Compound 20d, (Z)-5-((4-bromothiophen-2-yl)methylene)-3-((E)-3,7-dimethylocta-2,6-dienyl)thiazolidine-2,4-dione] it is 650 ± 70 nM. Same read-out and setting: the figure for `Cc1ccc(/C=C2\SC(=O)N(CCC3=CC[C@H]4C[C@@H]3C4(C)C)C2=O)s1` [Compound 21e, (Z)-3-(2-((1R,5S)-6,6-dimethylbicyclo[3.1.1]hept-2-en-2-yl)ethyl)-5-((5-methylthiophen-2-yl)methylene)thiazolidine-2,4-dione] is 2300 ± 100 nM; for `O=C1S/C(=C\c2ccc(Br)cc2)C(=O)N1Cc1ccccc1` [Compound 19f, (Z)3-benzyl-5-(4-bromobenzylidene)thiazolidine-2,4-dione] it is 1600 ± 300 nM; for `CC1=CC[C@@H](C/C=C2\SC(=O)N(Cc3ccccc3)C2=O)C1(C)C` [Compound 19g, (S,Z)-3-Benzyl-5-(2-(2,2,3-trimethylcyclopent-3-enyl)ethylidene)thiazolidine-2,4-dione] it is 2400 ± 1100 nM. On the same count and under the same terms, the figure for `O=C1NC(=O)/C(=C/c2cccs2)S1` [Compound 18c, (Z)-5-(thiophen-2-ylmethylene)thiazolidine-2,4-dione] is over 100000 nM.

Turning to `CC(C)=CCC/C(C)=C/CN1C(=O)S/C(=C\c2cccs2)C1=O` [Compound 20c, (Z)-3-((E)-3,7-dimethylocta-2,6-dienyl)-5-(thiophen-2-ylmethylene)thiazolidine-2,4-dione], the IC50 is over 100000 nM. The same measure, in the same setting: the figure for `CC(C)=CCC/C(C)=C/CN1C(=O)S/C(=C\c2ccc(Br)s2)C1=O` [Compound 20b, (Z)-5-((5-bromothiophen-2-yl)methylene)-3-((E)-3,7-dimethylocta-2,6-dienyl)thiazolidine-2,4-dione] is over 100000 nM; for `O=C1S/C(=C\c2cccs2)C(=O)N1Cc1ccccc1` [Compound 19c, (Z)-3-Benzyl-5-(thiophen-2-ylmethylene)thiazolidine-2,4-dione] it is over 100000 nM.
